Results published in paper PMC11579541, “In vitro, in vivo, and in silico approaches for evaluating the preclinical DMPK profiles of ammoxetine, a novel chiral serotonin and norepinephrine reuptake inhibitor” (Frontiers in Pharmacology, 2024).
Values joined by “and” are separate entries in the source; they are usually repeats but may differ in a detail not shown here. Equal values may be shown once.

What was measured:
Assay type in all cases: in vitro ADME
CYP 2C19 = CYP 2C19 (Homo sapiens, UniProt P33261); test: Phenotyping with recombinant human CYP 2C19; set-up: purchased BD (Woburn, USA); details: 5 μmol/L, 25 pmol/mL CYP, 1 h
Protocol: (§1) Ammoxetine (final concentration 5 μmol/L) was incubated with recombinant human CYP 3A4, CYP 1A2, CYP 2C9, CYP 2C19, and CYP 2D6 (final concentration 25 pmol/mL) in a 5 mmol/L K2HPO4 buffer at pH 7.4. The incubations were performed in quintuplicate. NADPH (final concentration 1 mmol/L) was added to initiate the incubation process. The mixture was then incubated at 37°C for 1 h. To stop the reaction, 200 μL of ice-cold acetonitrile/methanol (1:1, v/v) containing 500 ng/mL of L-phencynonate (IS) was added. The samples were vortexed for 2 min and centrifuged at 13,800×g and 4°C for 10 min. The supernatants obtained were analyzed using an LC-MS-MS method. To establish appropriate controls, zero-time controls and blank controls in the absence of NADPH were set up in parallel.

[1] = Stability of ammoxetine in dog plasma (method validation)
Protocol: LC-MS-MS methods were developed and validated to accurately quantify ammoxetine in rat and beagle dog plasma, as well as in rat tissues, urine, feces, and bile. The methods involved direct protein precipitation using methanol, providing a straightforward and rapid sample preparation process with high extraction recovery rates (absolute recoveries >85% in all matrices). […] The precision and accuracy of the plasma methods were evaluated through intra-day and inter-day analyses, yielding satisfactory results. Additionally, stability tests conducted in rat and beagle dog plasma met the analytical requirements for determination. Furthermore, the majority of the analytes met the necessary criteria for matrix effects when quantifying ammoxetine in biological samples. The developed methods are well-suited for determining ammoxetine concentrations in rat and beagle dog biological samples, enabling in vivo studies of this compound. They provide specific and highly sensitive quantification, facilitating investigations into the drug’s behavior in vivo. Detailed results regarding the establishment and validation of these analytical methods can be found in Supplementary Data Sheet 2.

CYP 2C9 = CYP 2C9 (Homo sapiens, UniProt P11712); test: Phenotyping with recombinant human CYP 2C9; set-up: purchased BD (Woburn, USA); details: 5 μmol/L, 25 pmol/mL CYP, 1 h
Protocol: as §1

CYP 2B6 = molecular target: T1, CYP 2B6 (Homo sapiens, UniProt P20813); test: CYP inhibition, cocktail-substrate method in HLM; details: probe bupropion
T1 construct: 0.5 mg/mL HLM, 1 mmol/L NADPH, and a cocktail of 10 probe substrates for 9 CYP isoforms; tissue BD (Woburn, USA); host or cells: pooled human liver microsomes
T1 sequence (P20813 1-491): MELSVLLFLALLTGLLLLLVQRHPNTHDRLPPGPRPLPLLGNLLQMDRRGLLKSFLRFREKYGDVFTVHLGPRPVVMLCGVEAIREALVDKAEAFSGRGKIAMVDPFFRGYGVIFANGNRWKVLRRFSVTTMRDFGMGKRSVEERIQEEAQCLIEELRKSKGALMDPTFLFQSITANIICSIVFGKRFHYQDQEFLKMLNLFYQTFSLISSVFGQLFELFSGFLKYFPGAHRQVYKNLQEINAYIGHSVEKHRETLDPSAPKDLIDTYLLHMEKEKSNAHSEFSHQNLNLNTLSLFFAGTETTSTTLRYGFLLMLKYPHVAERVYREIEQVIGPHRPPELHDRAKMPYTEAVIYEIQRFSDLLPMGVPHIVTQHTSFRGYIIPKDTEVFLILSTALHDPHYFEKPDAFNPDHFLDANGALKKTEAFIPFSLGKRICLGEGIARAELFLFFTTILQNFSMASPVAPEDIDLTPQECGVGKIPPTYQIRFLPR
Protocol: To assess the CYP inhibition profiling of ammoxetine, a high-throughput assay based on the cocktail-substrate method was performed, as described in the literature ([Kim et al., 2005]; [Kozakai et al., 2014]). Microsomal incubations were conducted in triplicate for 30 min at 37°C in a reaction system (200 μL) consisting of […] potassium phosphate buffer (pH 7.4), 0.5 mg/mL HLM, 1 mmol/L NADPH, and a cocktail of 10 probe substrates for 9 CYP isoforms. The final concentration of each CYP-specific substrate was chosen to be close to the Michaelis-Menten constant (K m ) value of the respective substrate ([Kim et al., 2005]; [Lee et al., 2024]). For instance, phenacetin (CYP 1A2) was used at a concentration of 50 μmol/L, coumarin (CYP 2A6) at 5 μmol/L, bupropion (CYP 2B6) at 50 μmol/L, amodiaquine (CYP 2C8) at 5 μmol/L, tolbutamide (CYP 2C9) at 100 μmol/L, S-mephenytoin (CYP 2C19) at 100 μmol/L, dextromethorphan (CYP 2D6) at 5 μmol/L, chlorzoxazone (CYP 2E1) at 50 μmol/L, and testosterone and midazolam (CYP 3A4) at 50 μmol/L. Ammoxetine was evaluated at five concentrations: 0.1, 1, 10, 50, and 100 μmol/L. Additionally, a blank control without ammoxetine was included. The incubation was terminated by adding an equal volume of ice-cold acetonitrile/methanol (1:1, v/v) along with the IS, dexmedetomidine (1 ng/mL). After a 20-fold dilution, the mixture was centrifuged at 13,800×g for 10 min at 4°C. The supernatants were used to measure the levels of metabolites from the respective probe substrates using an LC-MS-MS method. The half-maximal inhibitory concentration (IC50) values were subsequently calculated.

CYP 2C19, sequence (P33261 whole entry): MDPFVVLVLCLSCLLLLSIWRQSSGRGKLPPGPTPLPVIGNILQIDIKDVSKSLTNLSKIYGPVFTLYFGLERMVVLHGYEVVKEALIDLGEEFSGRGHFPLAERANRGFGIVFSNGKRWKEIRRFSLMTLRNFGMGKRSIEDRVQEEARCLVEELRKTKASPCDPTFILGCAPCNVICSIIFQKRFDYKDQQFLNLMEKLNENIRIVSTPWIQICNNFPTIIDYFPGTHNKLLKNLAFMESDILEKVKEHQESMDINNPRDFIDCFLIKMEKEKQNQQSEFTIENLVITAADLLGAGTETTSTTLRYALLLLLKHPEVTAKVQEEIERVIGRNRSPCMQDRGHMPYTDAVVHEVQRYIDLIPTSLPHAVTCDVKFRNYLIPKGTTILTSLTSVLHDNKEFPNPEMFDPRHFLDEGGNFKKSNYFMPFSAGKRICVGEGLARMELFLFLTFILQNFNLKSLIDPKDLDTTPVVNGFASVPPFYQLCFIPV
CYP 2C9, sequence (P11712 whole entry): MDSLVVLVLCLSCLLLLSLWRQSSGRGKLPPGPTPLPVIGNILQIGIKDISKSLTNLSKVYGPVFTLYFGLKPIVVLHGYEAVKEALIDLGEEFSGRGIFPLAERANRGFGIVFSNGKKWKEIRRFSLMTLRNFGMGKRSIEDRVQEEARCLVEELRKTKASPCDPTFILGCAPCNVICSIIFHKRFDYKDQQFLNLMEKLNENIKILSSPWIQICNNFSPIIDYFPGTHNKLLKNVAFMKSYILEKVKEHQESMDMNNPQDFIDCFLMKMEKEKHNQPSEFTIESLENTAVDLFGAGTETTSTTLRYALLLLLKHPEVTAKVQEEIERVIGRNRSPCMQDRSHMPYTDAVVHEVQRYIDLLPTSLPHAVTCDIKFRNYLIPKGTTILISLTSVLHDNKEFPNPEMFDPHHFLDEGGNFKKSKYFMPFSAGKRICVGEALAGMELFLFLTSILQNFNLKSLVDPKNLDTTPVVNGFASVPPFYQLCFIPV

CNCC[C@H](Oc1cccc2c1OCO2)c1cccs1 [ammoxetine]
Transformation ratio% (CYP 2C19): 26.27±1.85% and 26.27%
residuary concentration of ammoxetine, Mean±SD (CYP 2C19): 5.05±0.13
Stability in dog plasma, Accuracy/% ([1]; 5 ng/mL, 0d (-30℃)): 91.60±7.22%
Stability in dog plasma, Accuracy/% ([1]; 5 ng/mL, 15d (-30℃)): 97.58±13.78%
Stability in dog plasma, Accuracy/% ([1]; 5 ng/mL, 25d (-30℃)): 97.61±9.77%
Stability in dog plasma, Accuracy/% ([1]; 5 ng/mL, in auto-sampler for 24h): 96.64±4.72%
Stability in dog plasma, Accuracy/% ([1]; 5 ng/mL, repeated freezing and thawing for 3 times): 96.59±4.01%
Stability in dog plasma, Accuracy/% ([1]; 5 ng/mL, room temperature for 4h): 99.00±11.24%
Stability in dog plasma, Accuracy/% ([1]; 100 ng/mL, 0d (-30℃)): 100.10 ±1.62%
Stability in dog plasma, Accuracy/% ([1]; 100 ng/mL, 15d (-30℃)): 98.63±4.19%
Stability in dog plasma, Accuracy/% ([1]; 100 ng/mL, 25d (-30℃)): 101.68 ±6.57%
Stability in dog plasma, Accuracy/% ([1]; 100 ng/mL, in auto-sampler for 24h): 99.51±7.50%
Stability in dog plasma, Accuracy/% ([1]; 100 ng/mL, repeated freezing and thawing for 3 times): 98.25±6.55%
Stability in dog plasma, Accuracy/% ([1]; 100 ng/mL, room temperature for 4h): 101.87 ±8.27%
Stability in dog plasma, Accuracy/% ([1]; 1200 ng/mL, 0d (-30℃)): 92.06±3.06%
Stability in dog plasma, Accuracy/% ([1]; 1200 ng/mL, 15d (-30℃)): 92.48±4.64%
Stability in dog plasma, Accuracy/% ([1]; 1200 ng/mL, 25d (-30℃)): 93.96±3.46%
Stability in dog plasma, Accuracy/% ([1]; 1200 ng/mL, in auto-sampler for 24h): 92.32±4.25%
Stability in dog plasma, Accuracy/% ([1]; 1200 ng/mL, repeated freezing and thawing for 3 times): 92.01±6.32%
Stability in dog plasma, Accuracy/% ([1]; 1200 ng/mL, room temperature for 4 h): 93.89±4.32%
Transformation ratio% (CYP 2C9): 13.02±7.14%
residuary concentration of ammoxetine, Mean±SD (CYP 2C9): 5.96±0.49
IC50 (CYP 2B6): > 100 µM
